IC50 data for 26 compounds are collected here from ChEMBL document CHEMBL3046012, “Synthesis and Cytotoxic Activity of 6-(Substituted-Phenyl)Amino-5,8-Quinazolinediones” (Med Chem Res, 2004).

≈ marks a conversion by molar mass, not a printed value. A value given as a limit tells only on which side of the number the result lay.

What all share (type): functional, cell-based
The test system of one assay is SK-MEL-2. Put plainly: Cytotoxicity against Homo sapiens (human) SK-MEL-2 cells after 72 hr by MTT assay. The settings on record: SK-MEL-2, 72 h.
The next assay has as its system HCT-15. The assay can be described thus: Cytotoxicity against Homo sapiens (human) HCT15 cells after 72 hr by MTT assay. The settings on record: HCT-15, 72 h. In general terms: Tetrazolium dyes change colour on reduction, which living cells bring about.
Another assay has as its system SK-OV-3. Put plainly: Cytotoxicity against Homo sapiens (human) SKOV3 cells after 72 hr by MTT assay. The settings on record: SK-OV-3, 72 h.
The next assay deals with A549. The assay can be described thus: Cytotoxicity against Homo sapiens (human) A549 cells after 72 hr by MTT assay. As to conditions: A549, 72 h.
In the next assay the test system is XF498. The assay can be described thus: Cytotoxicity against Homo sapiens (human) XF498 cells after 72 hr by MTT assay. As to conditions: XF498, 72 h.

As a reminder, the IC50 is the concentration that gives 50% inhibition. Read a high IC50 as lower potency. For `O=C1C(Nc2ccc([N+](=O)[O-])cc2)=C(Cl)C(=O)c2ncncc21`, the IC50 is 0.61 µg/mL (≈ 1.84 µM) in the assay with SK-MEL-2; 0.3 µg/mL (≈ 0.907 µM) with HCT-15; 1.28 µg/mL (≈ 3.87 µM) in the assay with SK-OV-3; 2.77 µg/mL (≈ 8.38 µM) with A549; 15.4 µg/mL (≈ 46.4 µM) in the assay on XF498.
The corresponding values for `O=C1C(Cl)=C(Nc2ccc(Cl)cc2)C(=O)c2cnccc21` are 0.66 µg/mL (≈ 2.07 µM), 0.18 µg/mL (≈ 0.564 µM), 0.97 µg/mL (≈ 3.04 µM), 1.1 µg/mL (≈ 3.45 µM) and 1.28 µg/mL (≈ 4.01 µM).
For the compound `Cc1ccc(NC2=CC(=O)c3ncncc3C2=O)cc1`, the IC50 amounted to 0.02 µg/mL (≈ 0.0754 µM) with SK-MEL-2; 0.01 µg/mL (≈ 0.0377 µM) in the assay with HCT-15; 0.03 µg/mL (≈ 0.113 µM) with SK-OV-3; 0.02 µg/mL (≈ 0.0754 µM) in the assay with A549; 0.13 µg/mL (≈ 0.49 µM) with XF498.
Turning to `O=C1C(Nc2ccc(I)cc2)=CC(=O)c2ncncc21`, the IC50 in the assay on SK-MEL-2 turned out to be 0.02 µg/mL (≈ 0.053 µM); with HCT-15, 0.01 µg/mL (≈ 0.0265 µM); with SK-OV-3 it was 0.04 µg/mL (≈ 0.106 µM); in the assay on A549, 0.27 µg/mL (≈ 0.716 µM); in the assay with XF498, 0.04 µg/mL (≈ 0.106 µM).
In the case of `O=C1C(Nc2ccccc2)=CC(=O)c2ncncc21`, the concentration for half-maximal inhibition (IC50) is 0.01 µg/mL (≈ 0.0398 µM) in the assay with SK-MEL-2; 0.01 µg/mL (≈ 0.0398 µM) in the assay on HCT-15; < 0.01 µg/mL with SK-OV-3; 0.02 µg/mL (≈ 0.0796 µM) in the assay on A549; 0.01 µg/mL (≈ 0.0398 µM) in the assay on XF498.
On to `CCOc1ccc(NC2=C(Cl)C(=O)c3ncncc3C2=O)cc1`, for which the IC50 in the assay with SK-MEL-2 was 0.08 µg/mL (≈ 0.243 µM); with HCT-15 it was 0.04 µg/mL (≈ 0.121 µM); in the assay with SK-OV-3, 0.22 µg/mL (≈ 0.667 µM); in the assay on A549, 0.33 µg/mL (≈ 1 µM); in the assay with XF498 it was 0.3 µg/mL (≈ 0.91 µM).
The corresponding values for `O=C1C(Nc2ccc(Cl)cc2)=CC(=O)c2ncncc21` are 0.01 µg/mL (≈ 0.035 µM), < 0.01 µg/mL, 0.01 µg/mL (≈ 0.035 µM), 0.02 µg/mL (≈ 0.07 µM) and 0.01 µg/mL (≈ 0.035 µM).
The corresponding values for `O=C1C(Nc2ccc(Cl)cc2)=C(Cl)C(=O)c2ncncc21` are 0.3 µg/mL (≈ 0.937 µM), 0.29 µg/mL (≈ 0.906 µM), 0.31 µg/mL (≈ 0.968 µM), 0.3 µg/mL (≈ 0.937 µM) and 0.4 µg/mL (≈ 1.25 µM).
`O=C1C(Nc2ccc(F)cc2)=C(Cl)C(=O)c2ncccc21`: the IC50 with SK-MEL-2 stood at 1.39 µg/mL (≈ 4.59 µM); in the assay on HCT-15 it was 0.18 µg/mL (≈ 0.595 µM); in the assay with SK-OV-3, 0.5 µg/mL (≈ 1.65 µM); in the assay on A549 it was 1.25 µg/mL (≈ 4.13 µM); in the assay on XF498 it was 0.36 µg/mL (≈ 1.19 µM).
With `O=C1C(Nc2ccc(F)cc2)=C(Cl)C(=O)c2ncncc21`, the IC50 with SK-MEL-2 was found to be 0.08 µg/mL (≈ 0.263 µM); with HCT-15, 0.04 µg/mL (≈ 0.132 µM); with SK-OV-3, 0.27 µg/mL (≈ 0.889 µM); in the assay on A549, 0.33 µg/mL (≈ 1.09 µM); in the assay on XF498 it was 0.19 µg/mL (≈ 0.626 µM).
For `O=C1C(Nc2ccc(I)cc2)=C(Cl)C(=O)c2ncncc21`, in that order: 0.3 µg/mL (≈ 0.729 µM), 0.28 µg/mL (≈ 0.68 µM), 0.27 µg/mL (≈ 0.656 µM), 1.51 µg/mL (≈ 3.67 µM) and 1.33 µg/mL (≈ 3.23 µM).
For `Cc1ccc(NC2=C(Cl)C(=O)c3ncccc3C2=O)cc1`, in that order: 0.42 µg/mL (≈ 1.41 µM), 0.33 µg/mL (≈ 1.1 µM), 1.27 µg/mL (≈ 4.25 µM), 1.14 µg/mL (≈ 3.82 µM) and 1.26 µg/mL (≈ 4.22 µM).
The corresponding values for `O=C1C(Nc2ccc(Br)cc2)=CC(=O)c2ncncc21` are 0.02 µg/mL (≈ 0.0606 µM), 0.01 µg/mL (≈ 0.0303 µM), 0.02 µg/mL (≈ 0.0606 µM), 0.09 µg/mL (≈ 0.273 µM) and 0.03 µg/mL (≈ 0.0909 µM).
Turning to `O=C1C(Nc2ccc(I)cc2)=C(Cl)C(=O)c2ncccc21`, the half-maximal inhibitory concentration (IC50) in the assay with SK-MEL-2 was found to be 3.3 µg/mL (≈ 8.04 µM); with HCT-15, 1.27 µg/mL (≈ 3.09 µM); in the assay on SK-OV-3 it was 1.62 µg/mL (≈ 3.95 µM); with A549, 4.29 µg/mL (≈ 10.4 µM); in the assay with XF498 it was 3.61 µg/mL (≈ 8.79 µM).
The corresponding values for `O=C1C(Nc2ccccc2)=C(Cl)C(=O)c2ncccc21` are 1.42 µg/mL (≈ 4.99 µM), 0.74 µg/mL (≈ 2.6 µM), 1.34 µg/mL (≈ 4.71 µM), 2.3 µg/mL (≈ 8.08 µM) and 1.33 µg/mL (≈ 4.67 µM).
As to `O=C1C(Nc2ccc(C(F)(F)F)cc2)=C(Cl)C(=O)c2ncncc21`, the IC50 in the assay with SK-MEL-2 was 0.06 µg/mL (≈ 0.17 µM); with HCT-15, 0.03 µg/mL (≈ 0.0848 µM); with SK-OV-3 it was 0.21 µg/mL (≈ 0.594 µM); in the assay with A549, 0.32 µg/mL (≈ 0.905 µM); in the assay on XF498, 0.29 µg/mL (≈ 0.82 µM).
The corresponding values for `O=C1C(Nc2ccc(Cl)cc2)=C(Cl)C(=O)c2ncccc21` are 1.3 µg/mL (≈ 4.07 µM), 0.34 µg/mL (≈ 1.07 µM), 1.33 µg/mL (≈ 4.17 µM), 5.03 µg/mL (≈ 15.8 µM) and 3.31 µg/mL (≈ 10.4 µM).
The corresponding values for `O=C1C(Nc2ccc(F)cc2)=CC(=O)c2ncncc21` are 0.05 µg/mL (≈ 0.186 µM), 0.02 µg/mL (≈ 0.0743 µM), 0.07 µg/mL (≈ 0.26 µM), 1.08 µg/mL (≈ 4.01 µM) and 0.04 µg/mL (≈ 0.149 µM).
Take `CCOc1ccc(NC2=CC(=O)c3ncncc3C2=O)cc1`: the IC50 was 0.02 µg/mL (≈ 0.0677 µM) in the assay on SK-MEL-2; 0.02 µg/mL (≈ 0.0677 µM) in the assay with HCT-15; 0.02 µg/mL (≈ 0.0677 µM) with SK-OV-3; 0.16 µg/mL (≈ 0.542 µM) in the assay on A549; 0.03 µg/mL (≈ 0.102 µM) in the assay on XF498.
Consider `O=C1C(Nc2ccccc2)=C(Cl)C(=O)c2ncncc21`, for which the IC50 in the assay with SK-MEL-2 is 0.04 µg/mL (≈ 0.14 µM); in the assay with HCT-15, 0.03 µg/mL (≈ 0.105 µM); in the assay with SK-OV-3, 0.19 µg/mL (≈ 0.665 µM); in the assay with A549 it was 0.33 µg/mL (≈ 1.16 µM); with XF498 it was 0.28 µg/mL (≈ 0.98 µM).
Consider `O=C1C(Cl)=C(Nc2ccc(I)cc2)C(=O)c2cnccc21`, for which the half-maximal inhibitory concentration (IC50) in the assay on SK-MEL-2 came to 0.02 µg/mL (≈ 0.0487 µM); with HCT-15 it was 0.01 µg/mL (≈ 0.0244 µM); with SK-OV-3 it was 0.04 µg/mL (≈ 0.0974 µM); in the assay on A549, 0.27 µg/mL (≈ 0.658 µM); in the assay with XF498 it was 0.04 µg/mL (≈ 0.0974 µM).
Consider `O=C1C(Nc2ccc(OC(F)(F)F)cc2)=C(Cl)C(=O)c2ncncc21`, for which the IC50 in the assay with SK-MEL-2 is 0.29 µg/mL (≈ 0.784 µM); with HCT-15 it was 0.22 µg/mL (≈ 0.595 µM); with SK-OV-3, 0.27 µg/mL (≈ 0.73 µM); with A549, 0.37 µg/mL (≈ 1 µM); with XF498, 0.23 µg/mL (≈ 0.622 µM).
As for `O=C1C(Nc2ccc(Br)cc2)=C(Cl)C(=O)c2ncccc21`, the IC50 in the assay with SK-MEL-2 was 1.26 µg/mL (≈ 3.47 µM); in the assay on HCT-15, 0.34 µg/mL (≈ 0.935 µM); with SK-OV-3, 0.92 µg/mL (≈ 2.53 µM); in the assay with A549, 4.28 µg/mL (≈ 11.8 µM); in the assay on XF498, 2.83 µg/mL (≈ 7.78 µM).
The corresponding values for `N#Cc1ccc(NC2=C(Cl)C(=O)c3ncncc3C2=O)cc1` are 0.62 µg/mL (≈ 2 µM), 0.24 µg/mL (≈ 0.772 µM), 0.31 µg/mL (≈ 0.998 µM), 1.34 µg/mL (≈ 4.31 µM) and 1.68 µg/mL (≈ 5.41 µM).
The corresponding values for `O=C1C(Cl)=C(Nc2ccc(Br)cc2)C(=O)c2cnccc21` are 0.23 µg/mL (≈ 0.633 µM), 0.1 µg/mL (≈ 0.275 µM), 0.29 µg/mL (≈ 0.798 µM), 1.96 µg/mL (≈ 5.39 µM) and 0.22 µg/mL (≈ 0.605 µM).
The corresponding values for `O=C1C(Cl)=C(Nc2ccc(F)cc2)C(=O)c2cnccc21` are 1.22 µg/mL (≈ 4.03 µM), 0.31 µg/mL (≈ 1.02 µM), 1.86 µg/mL (≈ 6.14 µM), 1.27 µg/mL (≈ 4.2 µM) and 1.54 µg/mL (≈ 5.09 µM).
